This is an account of results in patent USRE39062E1, “INGAP protein involved in pancreatic islet neogenesis” (McGill Unviersity, priority 1995, dated 2006).

Type in all cases: cell-based
The subject of assay [1] is hamster insulinoma tumor cells (HIT). Description: 3H-thymidine incorporation into hamster insulinoma tumor cells (HIT), control cell line. The following applies: HIT control cell line in Ham's F-12K media, 24 hrs, TCA precipitation. The method, then: (§1) The same synthetic peptide was tested for its ability to stimulate ^3H-thymidine incorporation into rat pancreatic tumor duct cells (ARIP) and hamster insulinoma tumor cells (HIT). 10 μCi of ^3H-thymidine at 80.4 Ci/mmole concentration was added to approximate 10^6 cells cultured in Ham's F-12K media. After 24 hrs, the cells were harvested and solubilized. Differential precipitation of the nucleic acids with trichloroacetic acid (TCA) was performed according to the procedure modified by Rosenberg et al. and the ^3H-thymidine proportion incorporated was calculated. […] The synthetic peptide had no effect on the control cell line HIT.
In general terms: Dividing cells build labelled thymidine or BrdU into new DNA.

Assay [2] relates to rat pancreatic tumor duct cells (ARIP). As to the kind of experiment: 3H-thymidine incorporation into rat pancreatic tumor duct cells (ARIP). Particulars: ARIP cells in Ham's F-12K media, 24 hrs, TCA precipitation. The protocol: as §1
In assay [3] the test system is rat tumor duct cell line. Description: Growth and proliferation of a rat tumor duct cell line.
Assay [4] has as its system hamster duct cell line. Description: Growth and proliferation of a hamster duct cell line.
The test system of assay [5] is pancreatic ductal cells. As to the kind of experiment: Stimulation of pancreatic ductal cells to grow and proliferate.
Assay [6] relates to rat insulinoma cell line. Description: Growth and proliferation of a rat insulinoma cell line.
The test system of assay [7] is hamster insulinoma cell line. Description: Growth and proliferation of a hamster insulinoma cell line.

As to “synthetic peptide: synthetic peptide corresponding to amino acids 104-118 in SEQ ID NO:2 of the deduced hamster INGAP protein (GLHDPSHGTLPNGSG)”, the “effect on 3H-thymidine incorporation” value in assay [1] is listed as “no effect”. The “increase in 3H-thymidine incorporation comparing to the absence of the synthetic peptide” value in assay [2] is listed as 2.4 fold.
“fragment of 20 amino acids of the sequence of SEQ ID NO: 2, from amino acid #103-#122: fragment of 20 amino acids of INGAP, SEQ ID NO: 2, amino acids #103-#122 (IGLHDPSHGTLPNGSGWKWS)”: the “stimulation of growth and proliferation” value was “effect has been seen” in assay [3]; “effect has been seen” in assay [4]; “sufficient to stimulate pancreatic ductal cells to grow and proliferate” in assay [5]; “effect has been seen” in assay [6]; “effect has been seen” in assay [7].
